According to patent publication US20240199635A1, “TETRAHYDROTHIENO PYRIDINE DERIVATIVES AS DDRS INHIBITORS” (CHIESI FARMACEUTICI S.P.A., priority 2021, published 2024):

Assays:
DDR1 [1] = biological target: T1, DDR1 (Homo sapiens (Human), UniProt Q08345); assay: DDR1 binding assay (LanthaScreen Europium Kinase Binding assay); settings: potency class, read-out: Ki DDR1
Procedure: (§1) DDR1 and DDR2 binding assays were performed using Life Technologies LanthaScreen™ Europium Kinase Binding assay. The compounds were incubated with 5 nM DDR1 (Carna Biosciences) or 5 nM DDR2 (Life Technologies) for 1 hour at room temperature in white 384-well OptiPlate (PerkinElmer), containing 20 nM or 10 nM Kinase Tracer 178 respectively and 2 nM Europium labelled anti-GST antibody (Life Technologies) in assay buffer (50 mM HEPES pH 7.5, 10 mM MgCl2, 1 mM EGTA and 0.01% BRIJ35).
(§2) The ratio of fluorescence emission 665 nm/615 nm after excitation at 340 nm was obtained using the Tecan Spark 20M plate reader. IC50 values were determined in GraphPad Prism 7.0 software, using 4 parameter model: log(inhibitor) vs. response. IC50 values were converted in Ki using the Cheng-Prusoff equation (Ki=IC50/(1+[Tracer]/Kd).

DDR2 [2] = biological target: T2, DDR2 (Homo sapiens (Human), UniProt Q16832); assay: DDR2 binding assay (LanthaScreen Europium Kinase Binding assay); settings: potency class, read-out: Ki DDR2
Procedure: as §1, §2

DDR2 [3] = biological target: T2, DDR2; assay: DDR2 cell based assay (phospho-ELISA in HEK293T-DDR2 recombinant cells); settings: DDR2 phosphorylation, Type II Collagen stimulation, potency class, read-out: IC50DDR2
Procedure: The inhibition of DDR2 phosphorylation by compounds was evaluated in HEK293T-DDR2 recombinant cells by phospho-ELISA assay. Briefly, HEK293T-DDR2 cells were seeded in poly-D-lysine-coated 24-well plates at a density of 250,000 cells/well and incubated for 1.5 hours at 37° C. and 5% CO2 in DMEM+10% FBS. After that, the medium was changed to serum-free DMEM and cells were incubated for 3 hours. Then. test compounds were added at different concentrations 30 minutes before stimulation with bovine Type II Collagen at […] for further 3 hours. For DDR2 phospho-ELISA assay (DuoSet IC Human Phospho-DDR2; R&D Systems), protein extracts were obtained by adding 60 μl/well of lysis buffer prepared according to the manufacturer's instructions. Protein concentration in the samples was determined by BCA assay and the levels of phospho-DDR2 were determined following R&D Systems indications. Raw data were normalized to maximal inhibition control (0% for normalization) and positive control (100% for normalization; cells treated with 20 μg/ml collagen II) and IC50 parameters were calculated in GraphPad Prism 8.0 software, using sigmoidal dose-response curve fitting with variable slope.

DDR1 [4] = biological target: T1, DDR1; assay: DDR1 cell based assay (PathHunter U2OS DDR1 assay); settings: U2OS-DDR1 cells, Type II Collagen stimulation, potency class
Procedure: The inhibition of DDR1 receptor activation by compounds was evaluated by PathHunter® U2OS DDR1 assay (Eurofins DiscoverX), according to the manufacturer's instructions. Briefly, U2OS-DDR1 cells were seeded in white 384-well plates at a density of 5000 cells/well and incubated for 2 hours at 37° C. and 5% CO2. Cells were then treated with compounds at different concentrations and incubated for 30 minutes, before stimulation with bovine Type II Collagen 20 μg/ml and incubation overnight at 37° C. and 5% CO2. PathHunter Detection Reagents were prepared according to the protocol provided by DiscoverX and 20 μl/well of this mix were added to each well. After incubating the plates for 1 hour at room temperature in the dark, luminescence signal was acquired with a plate reader. Raw data were normalized to vehicle control (0% for normalization) and positive control (100% for normalization; cells treated with 20 μg/ml collagen II) and IC50 parameters were calculated in GraphPad Prism 8.0 software, using sigmoidal dose-response curve fitting with variable slope.

T2 sequence (Q16832 22-855): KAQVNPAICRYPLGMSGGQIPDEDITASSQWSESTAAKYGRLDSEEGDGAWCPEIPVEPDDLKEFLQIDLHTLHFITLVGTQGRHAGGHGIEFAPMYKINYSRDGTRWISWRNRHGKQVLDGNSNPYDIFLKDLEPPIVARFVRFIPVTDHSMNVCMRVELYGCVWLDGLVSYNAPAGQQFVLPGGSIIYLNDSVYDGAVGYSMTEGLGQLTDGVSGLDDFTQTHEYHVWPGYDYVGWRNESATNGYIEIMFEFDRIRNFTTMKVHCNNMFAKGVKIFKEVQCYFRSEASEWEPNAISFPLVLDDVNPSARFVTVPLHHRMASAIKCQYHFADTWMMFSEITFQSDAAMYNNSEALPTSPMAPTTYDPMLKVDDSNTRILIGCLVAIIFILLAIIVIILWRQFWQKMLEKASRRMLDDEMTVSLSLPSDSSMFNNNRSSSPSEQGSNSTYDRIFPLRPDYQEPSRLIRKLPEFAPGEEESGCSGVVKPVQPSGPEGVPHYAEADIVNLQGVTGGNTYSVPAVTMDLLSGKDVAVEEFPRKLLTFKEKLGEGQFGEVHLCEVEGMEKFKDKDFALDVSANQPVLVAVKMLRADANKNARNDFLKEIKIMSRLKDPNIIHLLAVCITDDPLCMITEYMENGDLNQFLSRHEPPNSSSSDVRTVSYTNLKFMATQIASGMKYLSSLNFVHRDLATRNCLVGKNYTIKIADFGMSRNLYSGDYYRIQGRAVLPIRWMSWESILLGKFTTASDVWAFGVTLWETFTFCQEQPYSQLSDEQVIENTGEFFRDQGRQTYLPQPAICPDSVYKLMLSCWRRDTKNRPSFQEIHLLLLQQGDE
T1 sequence (Q08345 19-913): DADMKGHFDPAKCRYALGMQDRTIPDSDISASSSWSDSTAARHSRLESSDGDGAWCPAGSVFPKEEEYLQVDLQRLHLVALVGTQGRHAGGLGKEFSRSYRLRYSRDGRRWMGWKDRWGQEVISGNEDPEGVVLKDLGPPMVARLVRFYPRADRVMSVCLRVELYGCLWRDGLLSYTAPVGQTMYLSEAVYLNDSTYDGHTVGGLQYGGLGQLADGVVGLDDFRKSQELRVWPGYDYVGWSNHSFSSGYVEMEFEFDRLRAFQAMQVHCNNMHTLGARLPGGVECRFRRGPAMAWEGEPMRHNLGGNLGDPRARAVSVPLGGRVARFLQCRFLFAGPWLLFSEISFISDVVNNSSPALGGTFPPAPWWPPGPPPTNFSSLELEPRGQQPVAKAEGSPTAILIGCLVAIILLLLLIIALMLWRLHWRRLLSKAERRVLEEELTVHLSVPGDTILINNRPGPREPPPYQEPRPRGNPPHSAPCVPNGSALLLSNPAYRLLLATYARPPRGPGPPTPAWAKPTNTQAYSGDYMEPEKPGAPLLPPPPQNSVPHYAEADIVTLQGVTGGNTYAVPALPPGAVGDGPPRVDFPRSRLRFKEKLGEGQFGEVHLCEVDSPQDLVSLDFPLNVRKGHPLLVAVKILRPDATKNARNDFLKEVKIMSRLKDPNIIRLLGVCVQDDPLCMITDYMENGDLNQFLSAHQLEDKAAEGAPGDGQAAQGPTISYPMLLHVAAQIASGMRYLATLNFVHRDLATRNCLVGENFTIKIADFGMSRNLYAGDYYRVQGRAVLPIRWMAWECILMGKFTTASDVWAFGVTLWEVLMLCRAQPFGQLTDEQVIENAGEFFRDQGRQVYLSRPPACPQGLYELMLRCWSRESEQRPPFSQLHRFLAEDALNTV

SMILES	Ki (DDR1 [1]) [nM]	Ki (DDR2 [2]) [nM]	IC50 (DDR2 [3]) [nM]	IC50 (DDR1 [4]) [nM]
Cn1cc(Nc2ncc(CN3CCc4c(C(=O)Nc5cc(C(C)(C)C)nn5C)csc4C3)cn2)cn1 [Example 16, N-(3-(tert-butyl)-1-methyl-1H-pyrazol-5-yl)-6-((2-((1-methyl-1H-pyrazol-4-yl)amino)pyrimidin-5-yl)methyl)-4,5,6,7-tetrahydrothieno[2,3-c]pyridine-3-carboxamide]	< 25	< 25	< 25	< 25
CC(C)(C)c1cc(NC(=O)c2csc3c2CCN(Cc2cnc(N)nc2)C3)no1 [Example 64, 6-((2-aminopyrimidin-5-yl)methyl)-N-(5-(tert-butyl)isoxazol-3-yl)-4,5,6,7-tetrahydrothieno[2,3-c]pyridine-3-carboxamide]	< 25	< 25	< 25	< 25
Cn1nc(NC(=O)c2csc3c2CCN(Cc2cnc(N)nc2)C3)cc1C(C)(C)C [Example 63, 6-((2-aminopyrimidin-5-yl)methyl)-N-(5-(tert-butyl)-1-methyl-1H-pyrazol-3-yl)-4,5,6,7-tetrahydrothieno[2,3-c]pyridine-3-carboxamide]	< 25	< 25	< 25	< 25
O=C(Nc1cc(F)cc(C(F)(F)F)c1)c1csc2c1CCN(Cc1cncnc1)C2 [Example 4, N-(3-fluoro-5-(trifluoromethyl)phenyl)-6-(pyrimidin-5-ylmethyl)-4,5,6,7-tetrahydrothieno[2,3-c]pyridine-3-carboxamide]	< 25	< 25	< 25	< 25
Nc1ncncc1CN1CCc2c(C(=O)Nc3cc(F)cc(C(F)(F)F)c3)csc2C1 [Example 45, 6-((4-aminopyrimidin-5-yl)methyl)-N-(3-fluoro-5-(trifluoromethyl)phenyl)-4,5,6,7-tetrahydrothieno[2,3-c]pyridine-3-carboxamide]	< 25	< 25	< 25	< 25
Nc1nccnc1CN1CCc2c(C(=O)Nc3cc(F)cc(C(F)(F)F)c3)csc2C1 [Example 46, 6-((3-aminopyrazin-2-yl)methyl)-N-(3-fluoro-5-(trifluoromethyl)phenyl)-4,5,6,7-tetrahydrothieno[2,3-c]pyridine-3-carboxamide]	< 25	< 25	< 25	< 25
Nc1ncc(CN2CCc3c(C(=O)Nc4cc(F)cc(C(F)(F)F)c4)csc3C2)cn1 [Example 38, 6-((2-aminopyrimidin-5-yl)methyl)-N-(3-fluoro-5-(trifluoromethyl)phenyl)-4,5,6,7-tetrahydrothieno[2,3-c]pyridine-3-carboxamide]	< 25	< 25	< 25	< 25
CC(=O)Nc1ncc(CN2CCc3c(C(=O)Nc4cc(F)cc(C(F)(F)F)c4)csc3C2)cn1 [Example 39, 6-((2-acetamidopyrimidin-5-yl)methyl)-N-(3-fluoro-5-(trifluoromethyl)phenyl)-4,5,6,7-tetrahydrothieno[2,3-c]pyridine-3-carboxamide]	< 25	< 25	25 to 50	25 to 50
CC(F)(F)c1cccc(NC(=O)c2csc3c2CCN(Cc2cncnc2)C3)c1 [Example 9, N-(3-(1,1-difluoroethyl)phenyl)-6-(pyrimidin-5-ylmethyl)-4,5,6,7-tetrahydrothieno[2,3-c]pyridine-3-carboxamide]	< 25	< 25		50 to 80
COc1ncncc1CN1CCc2c(C(=O)Nc3cc(CN4CC[C@@H](N(C)C)C4)cc(C(F)(F)F)c3)csc2C1 [Example 52, (R)-N-(3-((3-(dimethylamino)pyrrolidin-1-yl)methyl)-5-(trifluoromethyl)phenyl)-6-((4-methoxypyrimidin-5-yl)methyl)-4,5,6,7-tetrahydrothieno[2,3-c]pyridine-3-carboxamide]	< 25	< 25		50 to 80
Cc1cn(-c2cc(NC(=O)c3csc4c3CCN(Cc3cncnc3)C4)cc(C(F)(F)F)c2)cn1 [Example 3, N-(3-(4-methyl-1H-imidazol-1-yl)-5-(trifluoromethyl)phenyl)-6-(pyrimidin-5-ylmethyl)-4,5,6,7-tetrahydrothieno[2,3-c]pyridine-3-carboxamide]	< 25	< 25		25 to 50
CN(C)[C@@H]1CCN(Cc2cc(NC(=O)c3csc4c3CCN(Cc3cncnc3OC3CC3)C4)cc(C(F)(F)F)c2)C1 [Example 53, (R)-6-((4-cyclopropoxypyrimidin-5-yl)methyl)-N-(3-((3-(dimethylamino)pyrrolidin-1-yl)methyl)-5-(trifluoromethyl)phenyl)-4,5,6,7-tetrahydrothieno[2,3-c]pyridine-3-carboxamide]	< 25	< 25		25 to 50
COCC(=O)Nc1ccncc1CN1CCc2c(C(=O)Nc3cccc(C(F)(F)F)c3)csc2C1 [Example 17, 6-((4-(2-methoxyacetamido)pyridin-3-yl)methyl)-N-(3-(trifluoromethyl)phenyl)-4,5,6,7-tetrahydrothieno[2,3-c]pyridine-3-carboxamide]	< 25	25 to 50		25 to 50
Cc1cncc(CN2CCc3c(C(=O)Nc4cccc(C(F)(F)F)c4)csc3C2)c1 [Example 22, 6-((5-methylpyridin-3-yl)methyl)-N-(3-(trifluoromethyl)phenyl)-4,5,6,7-tetrahydrothieno[2,3-c]pyridine-3-carboxamide]	< 25	< 25		50 to 80
COCCNc1ncc(CN2CCc3c(C(=O)Nc4cc(F)cc(C(F)(F)F)c4)csc3C2)cn1 [Example 41, N-(3-fluoro-5-(trifluoromethyl)phenyl)-6-((2-((2-methoxyethyl)amino)pyrimidin-5-yl)methyl)-4,5,6,7-tetrahydrothieno[2,3-c]pyridine-3-carboxamide]	< 25	< 25		50 to 80
Nc1ncc(CN2CCc3c(C(=O)Nc4cccc(C(F)(F)F)c4)csc3C2)cn1 [Example 28, 6-((2-aminopyrimidin-5-yl)methyl)-N-(3-(trifluoromethyl)phenyl)-4,5,6,7-tetrahydrothieno[2,3-c]pyridine-3-carboxamide]	< 25	< 25		< 25
N#Cc1cc(NC(=O)c2csc3c2CCN(Cc2cnc(N)nc2)C3)cc(C(F)(F)F)c1 [Example 59, 6-((2-aminopyrimidin-5-yl)methyl)-N-(3-cyano-5-(trifluoromethyl)phenyl)-4,5,6,7-tetrahydrothieno[2,3-c]pyridine-3-carboxamide]	< 25	< 25		< 25
COc1cncc(CN2CCc3c(C(=O)Nc4cncc(C(F)(F)F)c4)csc3C2)c1 [Example 32, 6-((5-methoxypyridin-3-yl)methyl)-N-(5-(trifluoromethyl)pyridin-3-yl)-4,5,6,7-tetrahydrothieno[2,3-c]pyridine-3-carboxamide]	< 25	< 25		< 25
N#Cc1cncc(CN2CCc3c(C(=O)Nc4cccc(C(F)(F)F)c4)csc3C2)c1 [Example 19, 6-((5-cyanopyridin-3-yl)methyl)-N-(3-(trifluoromethyl)phenyl)-4,5,6,7-tetrahydrothieno[2,3-c]pyridine-3-carboxamide]	< 25	< 25		25 to 50
